Data reported in ChEMBL document CHEMBL1201862, “PubChem BioAssay data set” (2004).
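Growth conditions: 96-well plates. Treatment: test compound, 48 hours, 5 concentrations. Analysis: linear interpolation between bracketing concentrations; unreached endpoints set to highest concentration. GI50 marks 50% less growth.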 The source made the active and inactive calls. Cut-off read from the data, not from the text of the source: active = GI50 up to about 1.1 µM and inactive = higher.

Assays:
Test in all cases: growth of human tumour cells (NCI), 48 h
Hs-578T = system: Hs-578T
HCT-116 = system: HCT-116
OVCAR-4 = system: OVCAR-4
SF-295 = system: SF-295
IGROV-1 = system: IGROV-1
SK-MEL-5 = system: SK-MEL-5
COLO 205 = system: COLO 205
SK-MEL-28 = system: SK-MEL-28
A549 = system: A549
MDA-MB-435 = system: MDA-MB-435
UACC-62 = system: UACC-62
RXF 393 = system: RXF 393
SF-539 = system: SF-539
HCT-15 = system: HCT-15
SK-MEL-2 = system: SK-MEL-2
NCI-H460 = system: NCI-H460
BT-549 = system: BT-549
HOP-92 = system: HOP-92
NCI-H226 = system: NCI-H226
HL-60 = system: HL-60
M14 = system: M14
MCF7 = system: MCF7
Malme-3M = system: Malme-3M
U-251 = system: U-251
K562 = system: K562
786-0 = system: 786-0
ACHN = system: ACHN
SF-268 = system: SF-268
SNB-19 = system: SNB-19
SK-OV-3 = system: SK-OV-3
PC-3 = system: PC-3
UACC-257 = system: UACC-257
SR = system: SR
NCI/ADR-RES = system: NCI/ADR-RES
HCC 2998 = system: HCC 2998
SW-620 = system: SW-620
SNB-75 = system: SNB-75
T47D = system: T47D
OVCAR-5 = system: OVCAR-5
OVCAR-8 = system: OVCAR-8
LOX IMVI = system: LOX IMVI
MDA-N = system: MDA-N
UO-31 = system: UO-31
SN12C = system: SN12C
TK-10 = system: TK-10
HT-29 = system: HT-29
DU-145 = system: DU-145
CAKI-1 = system: CAKI-1
HOP-62 = system: HOP-62
MDA-MB-231 = system: MDA-MB-231
EKVX = system: EKVX
CCRF-CEM = system: CCRF-CEM
NCI-H522 = system: NCI-H522
KM12 = system: KM12
MOLT-4 = system: MOLT-4
RPMI-8226 = system: RPMI-8226
A498 = system: A498
NCI-H23 = system: NCI-H23
OVCAR-3 = system: OVCAR-3

## N#CCc1nc(-c2cc3ccc(O)cc3oc2=O)cs1
Hs-578T
  GI50: 66.1 µM (inactive)
HCT-116
  GI50: 53.1 µM (inactive)
OVCAR-4
  GI50: 43.4 µM (inactive)
SF-295
  GI50: 33.2 µM (inactive)
IGROV-1
  GI50: 49.1 µM (inactive)
SK-MEL-5
  GI50: 38.7 µM (inactive)
COLO 205
  GI50: > 100 µM (inactive)
SK-MEL-28
  GI50: 35.2 µM (inactive)
A549
  GI50: 55 µM (inactive)
MDA-MB-435
  GI50: 33.1 µM (inactive)
UACC-62
  GI50: 22.6 µM (inactive)
RXF 393
  GI50: 84.7 µM (inactive)
SF-539
  GI50: 69.3 µM (inactive)
HCT-15
  GI50: 35.9 µM
SK-MEL-2
  GI50: 27.2 µM (inactive)
NCI-H460
  GI50: 50 µM (inactive)
BT-549
  GI50: 25.2 µM (inactive)
HOP-92
  GI50: > 100 µM (inactive)
NCI-H226
  GI50: 53.6 µM (inactive)
HL-60
  GI50: 29.2 µM (inactive)
M14
  GI50: 46.5 µM (inactive)
MCF7
  GI50: 47.6 µM (inactive)
Malme-3M
  GI50: > 100 µM (inactive)
U-251
  GI50: 45.8 µM (inactive)
K562
  GI50: 31.5 µM (inactive)
786-0
  GI50: > 100 µM (inactive)
ACHN
  GI50: 57.9 µM (inactive)
SF-268
  GI50: 83.2 µM (inactive)
SNB-19
  GI50: > 100 µM (inactive)
SK-OV-3
  GI50: 73.6 µM (inactive)
PC-3
  GI50: 34.3 µM (inactive)
UACC-257
  GI50: 41.7 µM (inactive)
SR
  GI50: 29.4 µM (inactive)
NCI/ADR-RES
  GI50: > 100 µM (inactive)
HCC 2998
  GI50: 87.1 µM (inactive)
SW-620
  GI50: 39.6 µM (inactive)
SNB-75
  GI50: 57 µM (inactive)
T47D
  GI50: 36.7 µM (inactive)
OVCAR-5
  GI50: > 100 µM (inactive)
OVCAR-8
  GI50: > 100 µM (inactive)
LOX IMVI
  GI50: 46.2 µM (inactive)
MDA-N
  GI50: 48.9 µM (inactive)
UO-31
  GI50: 37.2 µM (inactive)
SN12C
  GI50: 54.8 µM (inactive)
TK-10
  GI50: > 100 µM (inactive)
HT-29
  GI50: 72.9 µM (inactive)
DU-145
  GI50: 83.4 µM (inactive)
CAKI-1
  GI50: > 100 µM (inactive)
HOP-62
  GI50: > 100 µM (inactive)
MDA-MB-231
  GI50: 95.1 µM (inactive)
EKVX
  GI50: 63 µM (inactive)
CCRF-CEM
  GI50: 38.7 µM (inactive)
NCI-H522
  GI50: > 100 µM (inactive)
KM12
  GI50: 28.5 µM (inactive)
MOLT-4
  GI50: 37.9 µM (inactive)
RPMI-8226
  GI50: 25.7 µM (inactive)

## C/C(=N\N=C(\N)SB(F)F)c1ccc2ccccc2c1
Hs-578T
  GI50: > 100 µM (inactive)
HCT-116
  GI50: > 100 µM (inactive)
OVCAR-4
  GI50: > 100 µM (inactive)
SF-295
  GI50: > 100 µM (inactive)
IGROV-1
  GI50: > 100 µM (inactive)
SK-MEL-5
  GI50: > 100 µM (inactive)
COLO 205
  GI50: > 100 µM (inactive)
SK-MEL-28
  GI50: > 100 µM (inactive)
A549
  GI50: > 100 µM (inactive)
MDA-MB-435
  GI50: > 100 µM (inactive)
UACC-62
  GI50: > 100 µM (inactive)
RXF 393
  GI50: 62.8 µM (inactive)
SF-539
  GI50: > 100 µM (inactive)
HCT-15
  GI50: 95.5 µM
SK-MEL-2
  GI50: > 100 µM (inactive)
NCI-H460
  GI50: > 100 µM (inactive)
BT-549
  GI50: > 100 µM (inactive)
HOP-92
  GI50: > 100 µM (inactive)
NCI-H226
  GI50: > 100 µM (inactive)
M14
  GI50: > 100 µM (inactive)
MCF7
  GI50: 87.7 µM (inactive)
Malme-3M
  GI50: > 100 µM (inactive)
U-251
  GI50: > 100 µM (inactive)
K562
  GI50: > 100 µM (inactive)
786-0
  GI50: > 100 µM (inactive)
ACHN
  GI50: > 100 µM (inactive)
SF-268
  GI50: 86.5 µM (inactive)
SNB-19
  GI50: > 100 µM (inactive)
SK-OV-3
  GI50: > 100 µM (inactive)
PC-3
  GI50: > 100 µM (inactive)
UACC-257
  GI50: > 100 µM (inactive)
SR
  GI50: 54.5 µM (inactive)
NCI/ADR-RES
  GI50: > 100 µM (inactive)
HCC 2998
  GI50: > 100 µM (inactive)
A498
  GI50: > 100 µM (inactive)
SW-620
  GI50: 71.8 µM (inactive)
SNB-75
  GI50: > 100 µM (inactive)
T47D
  GI50: > 100 µM (inactive)
OVCAR-5
  GI50: > 100 µM (inactive)
OVCAR-8
  GI50: > 100 µM (inactive)
LOX IMVI
  GI50: 56.4 µM (inactive)
MDA-N
  GI50: > 100 µM (inactive)
UO-31
  GI50: > 100 µM (inactive)
SN12C
  GI50: > 100 µM (inactive)
TK-10
  GI50: > 100 µM (inactive)
NCI-H23
  GI50: > 100 µM (inactive)
HT-29
  GI50: > 100 µM (inactive)
DU-145
  GI50: > 100 µM (inactive)
CAKI-1
  GI50: > 100 µM (inactive)
MDA-MB-231
  GI50: > 100 µM (inactive)
EKVX
  GI50: > 100 µM (inactive)
CCRF-CEM
  GI50: 4.37 µM (inactive)
NCI-H522
  GI50: 25.6 µM (inactive)
KM12
  GI50: > 100 µM (inactive)

## CC1OC(OC2C(O)COC(OC3C(C)OC(OC4C(OC(=O)[C@]56CCC(C)(C)C[C@@H]5C5=CCC7[C@@]8(C)C[C@H](O)[C@H](OC9OC(CO)C(O)C(O)C9O)[C@@](C)(CO)[C@@H]8CC[C@@]7(C)[C@]5(C)CC6)OCC(O)C4O)C(O)C3O)C2O)C(O)C(O)C1O (stereo partly specified)
Hs-578T
  GI50: 32 µM (inactive)
HCT-116
  GI50: 25.8 µM (inactive)
OVCAR-4
  GI50: 20.8 µM (inactive)
SF-295
  GI50: 23.9 µM (inactive)
SK-MEL-5
  GI50: 20.4 µM (inactive)
COLO 205
  GI50: 14.9 µM (inactive)
SK-MEL-28
  GI50: 15 µM (inactive)
A549
  GI50: 20.8 µM (inactive)
MDA-MB-435
  GI50: 23.4 µM (inactive)
UACC-62
  GI50: 20.8 µM (inactive)
RXF 393
  GI50: 15.6 µM (inactive)
SF-539
  GI50: 22.2 µM (inactive)
HCT-15
  GI50: 20.9 µM
NCI-H460
  GI50: 20.5 µM (inactive)
BT-549
  GI50: 24.1 µM (inactive)
HOP-92
  GI50: 23.7 µM (inactive)
NCI-H226
  GI50: 25.1 µM (inactive)
M14
  GI50: 22.8 µM (inactive)
MCF7
  GI50: 30.9 µM (inactive)
Malme-3M
  GI50: 33.4 µM (inactive)
U-251
  GI50: 23.9 µM (inactive)
K562
  GI50: 47.9 µM (inactive)
786-0
  GI50: 18.1 µM (inactive)
ACHN
  GI50: 21.2 µM (inactive)
SF-268
  GI50: 27.7 µM (inactive)
SNB-19
  GI50: 21.8 µM (inactive)
SK-OV-3
  GI50: 19.8 µM (inactive)
PC-3
  GI50: 18.2 µM (inactive)
UACC-257
  GI50: 17.5 µM (inactive)
SR
  GI50: 21 µM (inactive)
NCI/ADR-RES
  GI50: 21.6 µM (inactive)
HCC 2998
  GI50: 18.5 µM (inactive)
A498
  GI50: 19.5 µM (inactive)
OVCAR-3
  GI50: 18.1 µM (inactive)
SW-620
  GI50: 20.1 µM (inactive)
SNB-75
  GI50: 20 µM (inactive)
T47D
  GI50: 22 µM (inactive)
OVCAR-5
  GI50: 17.1 µM (inactive)
OVCAR-8
  GI50: 18.8 µM (inactive)
LOX IMVI
  GI50: 21.3 µM (inactive)
MDA-N
  GI50: 20.5 µM (inactive)
UO-31
  GI50: 12.9 µM (inactive)
SN12C
  GI50: 21.2 µM (inactive)
TK-10
  GI50: 17.1 µM (inactive)
NCI-H23
  GI50: 28.2 µM (inactive)
HT-29
  GI50: 21 µM (inactive)
DU-145
  GI50: 19.1 µM (inactive)
CAKI-1
  GI50: 12.5 µM (inactive)
HOP-62
  GI50: 18.3 µM (inactive)
MDA-MB-231
  GI50: 19.8 µM (inactive)
EKVX
  GI50: 16.5 µM (inactive)
CCRF-CEM
  GI50: 20.6 µM (inactive)
NCI-H522
  GI50: 46.6 µM (inactive)
KM12
  GI50: 35.5 µM (inactive)
MOLT-4
  GI50: 19 µM (inactive)
RPMI-8226
  GI50: 33.2 µM (inactive)
